Measurements reported in US20160222014A1, “COMPOUNDS FOR REGULATING FAK AND/OR SRC PATHWAYS” (ASANA BIOSCIENCES, LLC, priority 2013, published 2016).

Assays:
recombinant human FAK1 = target: T1, recombinant human FAK1 (Homo sapiens, UniProt Q05397); assay: FAK1 HTRF assay; format: biochemical
T1 construct: fused on or other part: N-terminal 6xHis tag
How it was run: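 His-tagged human FAK1 (residues 692–end, Sf9-expressed), 10 nM final, with 0.5 μM biotinylated gastrin-precursor Tyr87 peptide and a 10 μM final reagent in pH 7.4 buffer, 45 min at rt. Detection used Eu anti-pTyr antibody plus SA-APC (665/620 nm). Compounds top concentration 10 μM; IC50 from % inhibition.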

[1] = target: T2, FAK phosphorylated at Y397 in HEK-FAK cell line overexpressing human FL FAK protein (Homo sapiens, UniProt Q05397); assay: Cell based assay, Phospho-FAK ELISA; details: HEK stb; read-out: pFAK EC50 (μM) HEK stb
T2 construct: expressed in transfected cells
T2 sequence (Q05397 whole entry): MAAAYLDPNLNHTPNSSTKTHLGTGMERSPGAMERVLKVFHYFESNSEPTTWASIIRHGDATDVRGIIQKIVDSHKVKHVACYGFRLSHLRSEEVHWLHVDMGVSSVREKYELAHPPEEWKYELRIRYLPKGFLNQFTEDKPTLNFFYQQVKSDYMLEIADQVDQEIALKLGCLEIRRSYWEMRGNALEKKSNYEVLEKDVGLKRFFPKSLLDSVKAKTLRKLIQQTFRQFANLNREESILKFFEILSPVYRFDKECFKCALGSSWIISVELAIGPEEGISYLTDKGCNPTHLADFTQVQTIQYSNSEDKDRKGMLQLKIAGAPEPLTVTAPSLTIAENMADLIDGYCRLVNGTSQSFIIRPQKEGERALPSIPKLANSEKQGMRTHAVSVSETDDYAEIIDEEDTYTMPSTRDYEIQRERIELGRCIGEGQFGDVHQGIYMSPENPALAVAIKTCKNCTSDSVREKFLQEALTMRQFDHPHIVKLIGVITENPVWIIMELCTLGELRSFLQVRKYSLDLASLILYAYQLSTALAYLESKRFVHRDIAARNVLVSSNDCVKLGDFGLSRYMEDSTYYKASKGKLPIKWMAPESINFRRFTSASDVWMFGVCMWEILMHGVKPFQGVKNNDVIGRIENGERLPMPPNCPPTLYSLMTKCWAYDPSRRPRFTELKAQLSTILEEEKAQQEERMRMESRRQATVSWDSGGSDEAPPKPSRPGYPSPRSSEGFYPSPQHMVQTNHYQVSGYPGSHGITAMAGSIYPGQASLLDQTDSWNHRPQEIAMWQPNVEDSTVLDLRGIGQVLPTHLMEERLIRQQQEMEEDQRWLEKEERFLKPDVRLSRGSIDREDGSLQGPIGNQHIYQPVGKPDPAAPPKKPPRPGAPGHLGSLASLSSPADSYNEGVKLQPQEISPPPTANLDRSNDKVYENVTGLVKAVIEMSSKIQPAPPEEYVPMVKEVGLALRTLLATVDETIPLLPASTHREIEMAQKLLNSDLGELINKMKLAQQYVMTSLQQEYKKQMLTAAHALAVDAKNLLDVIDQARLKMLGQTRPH
Source text: D. Cell Based Assay-Phospho-FAK ELISA
The DuoSet IC ELISA (R&D systems—Cat no. DYC4528-5) provided the basic components required for the development of sandwich ELISAs to measure Focal Adhesion Kinase 1 (FAK) phosphorylated at Y397 in cell lysates. An immobilized capture antibody specific for FAK, also known as PTK2, binds both phosphorylated and unphosphorylated protein. After washing away unbound material, a biotinylated detection antibody specific for FAK phosphorylated at Y397 was used to detect only phosphorylated protein, utilizing a standard Streptavidin-HRP format. The cell line used for the assay was a stable HEK-FAK cell line overexpressing human FL FAK protein, which was generated as follows.
HEK293 cells (ATCC® CRL-1573™, 10801 University Boulevard, Manassas, Va. 20110 USA) were seeded in four 100 mm petri dishes at a seeding density of 1.5×10^6 cells per plate and incubated overnight at 37° C. in a 5% CO2 incubator. The transfection mix was prepared as follows. (A) 10 μg DNA (pCDNA4 V5/HisA vector containing Zeocin as mammalian selection marker, procured from Invitrogen) with the full length human FAK gene represented by the nucleotide sequence provided in NCBI Reference Sequence: NM_153831.3, SEQ ID NO: 1:
was added to 1.5 mL Opti-MEM® (reduced serum media is a modification of Eagle's Minimum Essential Media, buffered with HEPES and sodium bicarbonate and supplemented with hypoxanthine, thymidine, sodium pyruvate, L-glutamine, trace elements and growth factors commercially available from Invitrogen) and incubated at room temperature for 5 minutes. (B) 30 μL Lipofectamine™ Transfection reagent (Life Technologies) was added to 1.5 mL Opti-MEM® and incubated at room temperature for 5 minutes. Following this, (a) and (b) were mixed and incubated at room temperature for 20 minutes. Media was removed from cells and washed with 1× phosphate buffered saline (PBS) and the transfection mix prepared above was mixed with 3 mL of Opti-MEM®, added to the cells and incubated at 37° C. Four hours later, 6 mL of 20% Dulbecco's Modified Eagle Medium (DMEM) was added to the plates and incubated at 37° C. in a 5% CO2 incubator. Approximately 72 hours after transfection, cells were subcultured at various dilutions with fresh medium containing 0.8 mg/mL Zeocin™ (Life Technologies). Cells were replenished with selective medium every 3-4 days until cell foci were identified in the FAK transfected cells and most of the cells died in the control plates. Cells from these foci were grown in the presence of selective media and the expression of FAK was confirmed by Western Blotting. Over expression of FAK in the stably-transfected cells was quantified in the cell-based ELISA assay described below by determining the signal window, with a signal window of 2 or above considered to be robust). The HEK-FAK stable cell line thus was maintained in 0.8 mg/mL Zeocin™ (Life Technologies) and used in cell-based ELISA to assess autophosphorylation of FAK.
(i) Materials • 1. Phospho-FAK (Y397)-Capture Antibody • 2. Phospho-FAK (Y397)-Detection Antibody • 3. Streptavidin-HRP • 4. Cells used for the assay-HEK over expressing human FL FAK protein
(ii) Solutions • PBS—137 mM NaCl, 2.7 mM KCl, 8.1 mM Na2HPO4, 1.5 mM KH2PO4, pH 7.2-7.4, 0.2 μm filtered. • Wash Buffer—0.05% Tween20™ in PBS, pH 7.2-7.4 • Block Buffer—1% BSA, 0.05% NaN3, in PBS, pH 7.2-7.4. • IC Diluent #1-1% BSA in PBS, pH 7.2-7.4, 0.2 μm filtered. • IC Diluent #8-1 mM EDTA, 0.5% Triton™ X-100, 5 mM NaF in PBS, pH 7.2-7.4. IC Diluent #8 was also the base buffer for IC Diluent #3, IC Diluent #7, and Lysis. • Buffer #6. […]

Recombinant Src enzyme = target: T3, Recombinant Src enzyme (Homo sapiens, UniProt P12931); assay: Src HTRF assay; format: biochemical
T3 construct: purchased Millipore 14-326; host or cells: Sf21 insect cells
T3 sequence (P12931 whole entry): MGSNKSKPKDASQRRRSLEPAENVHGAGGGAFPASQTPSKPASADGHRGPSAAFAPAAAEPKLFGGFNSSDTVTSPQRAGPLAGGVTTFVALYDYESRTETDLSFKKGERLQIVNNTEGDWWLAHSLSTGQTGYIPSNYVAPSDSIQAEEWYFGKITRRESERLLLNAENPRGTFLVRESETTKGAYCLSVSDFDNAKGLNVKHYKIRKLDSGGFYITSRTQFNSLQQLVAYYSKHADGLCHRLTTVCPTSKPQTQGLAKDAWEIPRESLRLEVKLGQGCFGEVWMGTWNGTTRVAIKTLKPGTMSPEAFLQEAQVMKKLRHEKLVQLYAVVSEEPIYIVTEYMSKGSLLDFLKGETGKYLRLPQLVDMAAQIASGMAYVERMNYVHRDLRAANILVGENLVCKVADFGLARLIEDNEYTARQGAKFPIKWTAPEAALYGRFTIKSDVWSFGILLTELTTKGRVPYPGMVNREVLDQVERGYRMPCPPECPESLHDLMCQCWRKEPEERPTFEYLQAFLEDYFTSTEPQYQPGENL
How it was run: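 Sf21-expressed recombinant Src at 5 nM final with biotinylated N-terminally tagged Tyk2 peptide substrate at 0.5 μM final; a component freshly made in enzyme assay buffer pH7.4 was used at 10 μM final. Buffer, supplements, compound handling and procedure as in the FAK HTRF assay; dasatinib included.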

AURKB (Aurora B) enzyme = target: T4, AURKB (Aurora B) enzyme (Homo sapiens, UniProt Q96GD4); assay: Aurora B HTRF assay; format: biochemical; details: read-out: AuroraB IC50
T4 construct: purchased Invitrogen PVR 130
T4 sequence (Q96GD4 whole entry): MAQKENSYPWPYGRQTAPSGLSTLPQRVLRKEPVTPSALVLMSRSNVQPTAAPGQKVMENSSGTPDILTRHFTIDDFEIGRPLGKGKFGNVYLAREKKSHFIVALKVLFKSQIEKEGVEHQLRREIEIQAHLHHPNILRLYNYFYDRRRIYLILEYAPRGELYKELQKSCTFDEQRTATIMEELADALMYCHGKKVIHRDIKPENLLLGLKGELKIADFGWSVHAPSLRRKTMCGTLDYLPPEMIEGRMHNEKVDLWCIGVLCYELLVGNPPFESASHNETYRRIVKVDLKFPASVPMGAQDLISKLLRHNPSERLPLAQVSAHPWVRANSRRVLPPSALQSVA
How it was run: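 HTRF kinase assay with 5 nM Aurora B and 50 nM ULight-PLK (Ser137) peptide, with a reagent at 30 μM final; 1 h at rt. Reaction stopped with EDTA, and phospho-peptide detected with 2 nM Eu-anti-P-PLK(Ser137) antibody after 1 h at rt, read as HTRF.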

T1 sequence (Q05397 422-680 limits assumed): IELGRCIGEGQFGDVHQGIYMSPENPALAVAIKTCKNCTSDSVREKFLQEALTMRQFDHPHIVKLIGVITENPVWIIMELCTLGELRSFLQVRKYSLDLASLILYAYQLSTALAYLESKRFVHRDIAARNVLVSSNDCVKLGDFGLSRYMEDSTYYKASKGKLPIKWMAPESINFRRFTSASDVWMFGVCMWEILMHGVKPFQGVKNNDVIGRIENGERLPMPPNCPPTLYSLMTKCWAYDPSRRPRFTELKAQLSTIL

## CN(c1ncccc1Cn1ccc2cnc(Nc3ccc4c(c3)CCC(=O)N4)cc21)S(C)(=O)=O [Example 31]
Recombinant human FAK1
  IC50: < 20 nM
[1]
  EC50: > 1 µM

## CN(c1ncccc1Cn1ccc2cnc(Nc3ccc4[nH]c(=O)[nH]c4c3)nc21)S(C)(=O)=O [Example 77]
Recombinant human FAK1
  IC50: < 20 nM
[1]
  EC50: > 1 µM

## CN(c1ncccc1Cn1ccc2cnc(Nc3ccc4[nH]cc(C5=CCNCC5)c4c3)nc21)S(C)(=O)=O [Example 152]
Recombinant Src enzyme
  IC50: > 1000 nM
Recombinant human FAK1
  IC50: < 20 nM
[1]
  EC50: > 1 µM

## COc1cc(Nc2ncc3ccn(S(=O)(=O)c4cccc5cccnc45)c3n2)ccc1N1CCNCC1 [Example 198]
Recombinant human FAK1
  IC50: < 20 nM
[1]
  EC50: < 0.02 µM
AURKB (Aurora B) enzyme
  IC50: < 20 nM

## CN(c1ncccc1Cn1ccc2cnc(Nc3ccc4c(c3)NCCO4)nc21)S(C)(=O)=O [Example 215]
Recombinant Src enzyme
  IC50: < 20 nM
Recombinant human FAK1
  IC50: < 20 nM
[1]
  EC50: > 1 µM

## CN(c1ccccc1Cn1ncc2cnc(Nc3ccc4c(c3)CCC(=O)N4)cc21)S(C)(=O)=O [Example 225]
Recombinant human FAK1
  IC50: < 20 nM
[1]
  EC50: > 1 µM

## Cc1cc(Nc2ncc3ccn(S(=O)(=O)c4cccs4)c3n2)ccc1N1CCNCC1 [Example 229]
Recombinant Src enzyme
  IC50: < 20 nM
[1]
  EC50: > 1 µM

## C[C@H]1CN(c2ccc(Nc3ncc4ccn(S(=O)(=O)c5ccccc5C#N)c4n3)cc2)CCN1 [Example 242]
[1]
  EC50: > 1 µM
AURKB (Aurora B) enzyme
  IC50: < 20 nM

## O=S(=O)(c1cccc2cccnc12)n1ccc2cnc(Nc3ccc(CN4CCCC(CO)C4)cc3)nc21 (stereo not shown) [Example 247]
Recombinant human FAK1
  IC50: < 20 nM
[1]
  EC50: < 0.02 µM
AURKB (Aurora B) enzyme
  IC50: < 20 nM

## COc1ccccc1S(=O)(=O)N1CCc2cnc(Nc3ccc(N4CCNCC4)cc3)nc21 [Example 344]
[1]
  EC50: > 1 µM
AURKB (Aurora B) enzyme
  IC50: < 20 nM

## Cn1cc(Nc2cc3c(cn2)cnn3S(=O)(=O)c2cccc3cccnc23)cn1 [Example 349]
Recombinant Src enzyme
  IC50: > 1000 nM
[1]
  EC50: > 1 µM

## O=S(=O)(c1cccc2cccnc12)n1ccc2cnc(Nc3cnn(C4CCNCC4)c3)nc21 [Example 355]
[1]
  EC50: > 1 µM
AURKB (Aurora B) enzyme
  IC50: < 20 nM

## COc1cc(N2CCNCC2)ccc1Nc1ncc2ccn(S(=O)(=O)c3cccc4ccc(C)nc34)c2n1 [Example 365]
Recombinant Src enzyme
  IC50: > 1000 nM
[1]
  EC50: > 1 µM

## CN(c1ncccc1Cn1ccc2cnc(Nc3ccc(N4CC5CC4CN5)cc3)cc21)S(C)(=O)=O (stereo not shown) [Example 371]
Recombinant Src enzyme
  IC50: > 1000 nM
[1]
  EC50: > 1 µM

## COc1cc(N2CCN(CCO)CC2)ccc1Nc1cc2c(ccn2S(=O)(=O)c2cccc3cccnc23)cn1 [Example 386]
Recombinant Src enzyme
  IC50: > 1000 nM
Recombinant human FAK1
  IC50: < 20 nM
[1]
  EC50: < 0.02 µM

## COc1cc(N2CCN(CCO)CC2)ccc1Nc1cc2c(cn1)cnn2S(=O)(=O)c1cccc2cccnc12 [Example 387]
Recombinant Src enzyme
  IC50: > 1000 nM
Recombinant human FAK1
  IC50: < 20 nM
[1]
  EC50: < 0.02 µM

## COc1cc(Nc2ncc3ccn(S(=O)(=O)c4cccc5cccnc45)c3n2)cc(OC)c1OC [Example 392]
[1]
  EC50: > 1 µM
AURKB (Aurora B) enzyme
  IC50: < 20 nM

## CN(c1ncccc1Cn1ccc2cnc(Nc3ccc(N4CCOCC4)cc3)cc21)S(C)(=O)=O [Example 397]
Recombinant Src enzyme
  IC50: > 1000 nM
[1]
  EC50: > 1 µM

## COc1cc(N2CCC(O)CC2)ccc1Nc1cc2c(ccn2S(=O)(=O)c2cccc3cccnc23)cn1 [Example 400]
Recombinant Src enzyme
  IC50: > 1000 nM
Recombinant human FAK1
  IC50: < 20 nM
[1]
  EC50: < 0.02 µM

## N#Cc1ccccc1S(=O)(=O)n1ncc2cnc(Nc3ccc(N4CCN(CCO)CC4)cc3)cc21 [Example 419]
Recombinant Src enzyme
  IC50: > 1000 nM
[1]
  EC50: > 1 µM

## COc1cc(Nc2ncc3ccn(Cc4ccccc4N(C)S(C)(=O)=O)c3n2)ccc1N1CCN(CCO)CC1 [Example 421]
Recombinant human FAK1
  IC50: < 20 nM
[1]
  EC50: > 1 µM

## COCCN1CCN(c2ccc(Nc3cc4c(ccn4S(=O)(=O)c4cccc5cccnc45)cn3)c(OC)c2)CC1 [Example 444]
Recombinant Src enzyme
  IC50: > 1000 nM
Recombinant human FAK1
  IC50: < 20 nM
[1]
  EC50: < 0.02 µM

## CN(c1ncccc1CN1c2nc(Nc3ccc(N4CCNCC4)cc3)ncc2C(C)(C)C1O)S(C)(=O)=O (stereo not shown) [Example 455]
Recombinant Src enzyme
  IC50: > 1000 nM
[1]
  EC50: > 1 µM

## C[C@@H]1CNCCN1c1ccc(Nc2cc3c(ccn3S(=O)(=O)c3ccccc3C#N)cn2)cc1 [Example 479]
[1]
  EC50: > 1 µM
AURKB (Aurora B) enzyme
  IC50: < 20 nM

## CN1CCN(c2ccc(Nc3cc4c(ccn4S(=O)(=O)c4ccccc4C#N)cn3)cc2)CC1 [Example 506]
Recombinant human FAK1
  IC50: < 20 nM
[1]
  EC50: > 1 µM

## COc1cc(C(=O)N2CCOCC2)c(F)cc1Nc1ncc2ccn(Cc3ccccc3N(C)S(C)(=O)=O)c2n1 [Example 512]
Recombinant Src enzyme
  IC50: > 1000 nM
[1]
  EC50: > 1 µM

## CS(=O)(=O)Nc1ccccc1Cn1ccc2cnc(Nc3ccc(N4CCNCC4)cc3)nc21 [Example 519]
Recombinant Src enzyme
  IC50: < 20 nM
[1]
  EC50: > 1 µM

## CN(c1ccccc1Cn1ccc2cnc(Nc3ccc4c(c3)CC3CNCCN43)nc21)S(C)(=O)=O (stereo not shown) [Example 526]
Recombinant human FAK1
  IC50: < 20 nM
[1]
  EC50: > 1 µM

## CC1(C)CN(c2ccccn2)c2nc(Nc3ccc(N4CCNCC4)cc3)ncc21 [Example 534]
[1]
  EC50: > 1 µM
AURKB (Aurora B) enzyme
  IC50: > 1000 nM

## CN(c1ccccc1Cn1ccc2cnc(Nc3ccc(N4CCNCC4=O)cc3)nc21)S(C)(=O)=O [Example 550]
Recombinant human FAK1
  IC50: < 20 nM
[1]
  EC50: > 1 µM
AURKB (Aurora B) enzyme
  IC50: < 20 nM

## CN(c1ccccc1Cn1ccc2cnc(Nc3ccc(-n4ccccc4=O)cc3)nc21)S(C)(=O)=O [Example 576]
Recombinant Src enzyme
  IC50: > 1000 nM
[1]
  EC50: > 1 µM

## CN(c1ncccc1Cn1ccc2cnc(Nc3ccc4c(c3)CC(=O)N4CCO)nc21)S(C)(=O)=O [Example 615]
[1]
  EC50: > 1 µM
AURKB (Aurora B) enzyme
  IC50: < 20 nM

## CN(C)C1CN(c2ccc(Nc3cc4c(ccn4S(=O)(=O)c4ccccc4C#N)cn3)cc2)C1 [Example 623]
Recombinant Src enzyme
  IC50: > 1000 nM
[1]
  EC50: > 1 µM

## CC1(C)CN(S(=O)(=O)c2cccc3cccnc23)c2nc(Nc3ccc(N4CCN(CC(=O)O)CC4)cc3)ncc21 [Example 699]
Recombinant Src enzyme
  IC50: > 1000 nM
[1]
  EC50: > 1 µM

## COc1cccc(N(C)S(C)(=O)=O)c1Cn1ccc2cnc(Nc3ccc(N4CCN[C@@H](C)C4)cc3)nc21 [Example 701]
Recombinant Src enzyme
  IC50: > 1000 nM
[1]
  EC50: > 1 µM

## COc1ccc(N(C)S(C)(=O)=O)c(Cn2ccc3cnc(Nc4ccc(N5CCC(N(C)C)CC5)cc4)nc32)c1 [Example 706]
Recombinant human FAK1
  IC50: < 20 nM
[1]
  EC50: < 0.02 µM

## CNC1CCN(c2ccc(Nc3ncc4c(n3)N(S(=O)(=O)c3cccc5ccccc35)CC4(C)C)cc2)CC1 [Example 707]
Recombinant Src enzyme
  IC50: > 1000 nM
[1]
  EC50: > 1 µM

## CN(C)C1CCN(c2ccc(Nc3ncc4c(n3)N(S(=O)(=O)c3cccc5ccccc35)CC4(C)C)cc2)CC1 [Example 755]
Recombinant Src enzyme
  IC50: > 1000 nM
[1]
  EC50: > 1 µM
